The record followed here is ChEMBL document CHEMBL1144088, “Potential antipsoriatic agents: lapacho compounds as potent inhibitors of HaCaT cell growth” (J Nat Prod, 1999).

In general, IC50 refers to the concentration needed to halve the response being measured.

The test system of series [1] is HaCaT. Put plainly: Antiproliferative activity against human HaCaT cells. It is filed as cell-based.
For series [2], the system named is HaCaT. Put plainly: Cytotoxicity against human HaCaT cells assessed as LDH release at 2 uM. It is filed as cell-based. Background: LDH leaks from cells whose membrane has failed.

`O=C1C=C(O)c2cccc(O)c2C1=O` gave a half-maximal inhibitory concentration (IC50) with HaCaT [1] above 10 µM.

As for `CC(O)c1cc2c(o1)C(=O)c1ccccc1C2=O` (configuration not stated), in the series on HaCaT [1], the concentration for half-maximal inhibition (IC50) is 3.7 µM.

In turn, `CC/C=C/C1=C(O)C(=O)c2c(O)cccc2C1=O` had an IC50 in the series on HaCaT [1] above 10 µM.

Compound `CCc1cc2c(o1)C(=O)c1c(O)cccc1C2=O` returned an IC50 with HaCaT [1] of 3 µM.

Take `CC(=O)c1cc2c(o1)C(=O)c1c(O)cccc1C2=O`: the Activity with HaCaT [2] was determined as 346 mU. In the series on HaCaT [1], this compound showed a half-maximal inhibitory concentration (IC50) of 0.3 µM.

For `CCc1cc2c(o1)-c1cccc(O)c1C(=O)C2=O`, in the series on HaCaT [2], the Activity is 235 mU. Further, in the series on HaCaT [1], the IC50 was 0.9 µM.

`CC1(C)CCC2=C(O1)C(=O)c1ccccc1C2=O` [ALPHA-LAPACHONE] returned a half-inhibitory concentration (IC50) in the series with HaCaT [1] of 10 µM.

For the compound `O=C1c2c(O)cccc2Cc2cccc(O)c21` [ANTHRALIN], in the series with HaCaT [2], the Activity was 294 mU.

With `CC1(C)C=CC2=C(O1)C(=O)c1ccccc1C2=O` [DEHYDRO-ALPHA-LAPACHONE], the 50% inhibitory concentration (IC50) in the series on HaCaT [1] was above 10 µM.

In the series with HaCaT [1], `C=C(C)C1CC2=C(O1)C(=O)c1ccccc1C2=O` (stereo not drawn) [DEHYDROISO-ALPHA-LAPACHONE] showed an IC50 of 4.3 µM.

`CC(C)=CCC1=C(O)C(=O)c2ccccc2C1=O` [LAPACHOL] registered a half-inhibitory concentration (IC50) in the series with HaCaT [1] above 10 µM.

`CC1(C)CCC2=C(O1)c1ccccc1C(=O)C2=O` [LAPACHONE]: the Activity in the series with HaCaT [2] turned out to be 329 mU. In the series with HaCaT [1], this compound yielded a half-maximal inhibitory concentration (IC50) of 0.7 µM.

Consider `CC(=O)c1cc2c(o1)C(=O)c1ccccc1C2=O` [NAPABUCASIN], for which the Activity in the series with HaCaT [2] is given as 331 mU. Besides, inhibition with HaCaT [1] was half-maximal at 0.5 µM (IC50).
